Test results: publication PMC4537502 (Psychopharmacology, 2015)

Experiments:
[1] = Biodistribution of ^11C-SA4503-derived radioactivity; assay type: in vivo; details: rat, 80 min after injection, mean ± SEM
[2] = plasma radioactivity and metabolite analysis after ^11C-SA4503 injection; assay type: in vivo; details: rat, 60 min, saline-treated
Procedure: From these samples, 25 μl of whole blood was collected and plasma (25 μl) was then obtained by centrifugation of the remaining sample (5 min at 13,000×g). Radioactivity in plasma and whole blood was determined using a calibrated gamma counter (CompuGamma CS1282, LKB-Wallac, Turku, Finland).

[3] = biological target: dopamine D2 receptor (D2R) (Rattus norvegicus, UniProt P61169); test: in vivo; details: rat, baseline, mean ± S.D.
Chain of dopamine D2 receptor (D2R) (P61169 whole entry): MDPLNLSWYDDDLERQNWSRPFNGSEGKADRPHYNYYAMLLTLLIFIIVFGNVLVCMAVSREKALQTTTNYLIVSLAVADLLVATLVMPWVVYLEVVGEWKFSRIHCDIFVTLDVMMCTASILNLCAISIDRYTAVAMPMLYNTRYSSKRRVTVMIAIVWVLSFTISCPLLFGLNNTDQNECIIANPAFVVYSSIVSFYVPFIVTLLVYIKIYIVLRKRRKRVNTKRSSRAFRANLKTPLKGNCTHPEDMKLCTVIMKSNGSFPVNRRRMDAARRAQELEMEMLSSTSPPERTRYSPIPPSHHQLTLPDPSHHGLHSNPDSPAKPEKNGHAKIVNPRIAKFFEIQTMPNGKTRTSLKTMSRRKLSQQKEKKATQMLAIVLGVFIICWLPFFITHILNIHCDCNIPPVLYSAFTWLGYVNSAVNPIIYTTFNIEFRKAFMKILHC
Procedure: Because of limited availability of the test drug, the 60 mg/kg dose group was scanned only with ^11C-raclopride.
After drug administration and about 20 min before each microPET scan, animals were anesthetized with isoflurane (Pharmachemie BV, Haarlem, Netherlands). […] Both tracers were injected as a slow bolus (1 ml of saline-diluted tracer solution infused during a period of 1 min), using a Harvard-style injection pump.
Two rats were scanned in each scan session. They were positioned on heating mats in a microPET Focus 220 system, in transaxial position above each other with their brains in the field of view. Body temperature of the animals was kept close to normal with electronic temperature controllers. Heart rate and oxygen level of the blood during the scan were monitored using pulse oximeters (PulseSense, Nonin). […] A list mode protocol was used with a 76-min acquisition time.
Image reconstruction was performed using microPET Manager 2.3.3.6 (Siemens). The PET data were split according to position along the y-axis, so that a separate data set was acquired for each animal. The list mode data of the emission scans were reframed in a dynamic sequence of 6 × 10, 4 × 30, 2 × 60, 1 × 120, 1 × 180, 4 × 300, and 3 × 600 s (with an additional 960-s frame for the rat that was injected first). The data were reconstructed per time frame employing an iterative reconstruction algorithm (OSEM2D with Fourier rebinning, 4 iterations, and 16 subsets). […] Data sets were corrected for decay, random coincidences, scatter, and attenuation.
In ^11C-raclopride scans of the brain, three-dimensional regions of interest (ROIs) were manually drawn over the left and right striatum and cerebellum, using the program ASIPro 6.3.3.0 (Siemens). […] Time-activity curves (TACs) were generated for these regions (Fig. 1). The results are expressed as dimensionless standardized uptake values (PET-SUV), defined as [(tissue activity concentration (MBq/g) × body weight (g) / injected dose (MBq)]. Brain tissue was assumed to have a specific gravity of 1 g/ml.
Plateau values for the striatum-to-cerebellum ratio were derived from this curve fit.

Question: With `COc1ccc(CCN2CCN(CCCc3ccccc3)CC2)cc1OC` [^11C-SA4503, 1-[2-(3,4-dimethoxyphenethyl)]-4-(3-phenylpropyl)piperazine] as the compound, how does the “Uptake of radioactivity (SUV values), Adipose tissue” value (from here on “Uptake … Adipose tissue”) ([1]; 3 mg/kg pridopidine) read?
Answer: 0.27 ± 0.06 SUV

Question: What about the “Uptake of radioactivity (SUV values), Adrenal gland” value (from here on “Uptake … Adrenal gland”) ([1]; 3 mg/kg pridopidine) of the same compound?
Answer: 23.0 ± 4.1 SUV

Question: What about the “Uptake of radioactivity (SUV values), Bladder” value (“Uptake … Bladder” for short) ([1]; 3 mg/kg pridopidine) of the same compound?
Answer: 0.88 ± 0.38 SUV

Question: What about the “Uptake of radioactivity (SUV values), Bone” value ([1]; 3 mg/kg pridopidine) of the same compound?
Answer: 0.26 ± 0.03 SUV

Question: And the “Uptake of radioactivity (SUV values), Bone marrow” value (shortened to “Uptake … Bone marrow”) ([1]; 3 mg/kg pridopidine)?
Answer: 2.62 ± 0.67 SUV

Question: What about the “Uptake of radioactivity (SUV values), Cerebellum” value (“Uptake … Cerebellum” below) ([1]; 3 mg/kg pridopidine) of the same compound?
Answer: 0.76 ± 0.17 SUV

Question: And the “Uptake of radioactivity (SUV values), Cerebral cortex” value (“Uptake … Cerebral cortex” for short) ([1]; 3 mg/kg pridopidine)?
Answer: 1.17 ± 0.17 SUV

Question: What about the “Uptake of radioactivity (SUV values), Heart” value (shortened to “Uptake … Heart”) ([1]; 3 mg/kg pridopidine) of the same compound?
Answer: 0.23 ± 0.01 SUV

Question: What about the “Uptake of radioactivity (SUV values), Intestine (large)” value (from here on “Uptake of radioactivity … (large)”) ([1]; 3 mg/kg pridopidine) of the same compound?
Answer: 1.21 ± 0.12 SUV

Question: And the “Uptake of radioactivity (SUV values), Intestine (small)” value (from here on “Uptake of radioactivity … (small)”) ([1]; 3 mg/kg pridopidine)?
Answer: 1.93 ± 0.40 SUV

Question: What about the “Uptake of radioactivity (SUV values), Kidney” value (from here on “Uptake … Kidney”) ([1]; 3 mg/kg pridopidine) of the same compound?
Answer: 2.10 ± 0.09 SUV

Question: What about the “Uptake of radioactivity (SUV values), Liver” value (from here on “Uptake … Liver”) ([1]; 3 mg/kg pridopidine) of the same compound?
Answer: 7.71 ± 0.89 SUV

Question: What about the “Uptake of radioactivity (SUV values), Lung” value (“Uptake … Lung” for short) ([1]; 3 mg/kg pridopidine) of the same compound?
Answer: 1.05 ± 0.06 SUV

Question: And the “Uptake of radioactivity (SUV values), Muscle” value (“Uptake … Muscle” below) ([1]; 3 mg/kg pridopidine)?
Answer: 0.13 ± 0.01 SUV

Question: What about the “Uptake of radioactivity (SUV values), Pancreas” value (“Uptake … Pancreas” for short) ([1]; 3 mg/kg pridopidine) of the same compound?
Answer: 5.02 ± 0.64 SUV

Question: What about the “Uptake of radioactivity (SUV values), Pituitary” value (“Uptake … Pituitary” below) ([1]; 3 mg/kg pridopidine) of the same compound?
Answer: 2.13 ± 0.44 SUV

Question: And the “Uptake of radioactivity (SUV values), Plasma” value (“Uptake … Plasma” below) ([1]; 3 mg/kg pridopidine)?
Answer: 0.14 ± 0.02 SUV

Question: What about the “Uptake of radioactivity (SUV values), Red blood cells” value (“Uptake … Red blood cells” for short) ([1]; 3 mg/kg pridopidine) of the same compound?
Answer: 0.07 ± 0.01 SUV

Question: And the “Uptake of radioactivity (SUV values), Rest brain” value (shortened to “Uptake … Rest brain”) ([1]; 3 mg/kg pridopidine)?
Answer: 1.10 ± 0.05 SUV

Question: What about the “Uptake of radioactivity (SUV values), Spleen” value (shortened to “Uptake … Spleen”) ([1]; 3 mg/kg pridopidine) of the same compound?
Answer: 2.03 ± 0.12 SUV

Question: What about the “Uptake of radioactivity (SUV values), Submandibular gland” value (shortened to “Uptake … Submandibular gland”) ([1]; 3 mg/kg pridopidine) of the same compound?
Answer: 4.48 ± 0.64 SUV

Question: And the “Uptake of radioactivity (SUV values), Urine” value (“Uptake … Urine” below) ([1]; 3 mg/kg pridopidine)?
Answer: 1.60 ± 0.87 SUV

Question: What about the “Uptake … Adipose tissue” value ([1]; 15 mg/kg pridopidine) of the same compound?
Answer: 0.36 ± 0.04 SUV

Question: And the “Uptake … Adrenal gland” value ([1]; 15 mg/kg pridopidine)?
Answer: 10.7 ± 4.1 SUV

Question: What about the “Uptake … Bladder” value ([1]; 15 mg/kg pridopidine) of the same compound?
Answer: 0.83 ± 0.22 SUV

Question: And the “Uptake of radioactivity (SUV values), Bone” value ([1]; 15 mg/kg pridopidine)?
Answer: 0.44 ± 0.05 SUV

Question: And the “Uptake … Bone marrow” value ([1]; 15 mg/kg pridopidine)?
Answer: 2.20 ± 0.77 SUV

Question: And the “Uptake … Cerebellum” value ([1]; 15 mg/kg pridopidine)?
Answer: 0.73 ± 0.03 SUV

Question: And the “Uptake … Cerebral cortex” value ([1]; 15 mg/kg pridopidine)?
Answer: 0.87 ± 0.05 SUV

Question: And the “Uptake … Heart” value ([1]; 15 mg/kg pridopidine)?
Answer: 0.38 ± 0.02 SUV

Question: And the “Uptake of radioactivity … (large)” value ([1]; 15 mg/kg pridopidine)?
Answer: 0.74 ± 0.08 SUV

Question: What about the “Uptake of radioactivity … (small)” value ([1]; 15 mg/kg pridopidine) of the same compound?
Answer: 1.70 ± 0.15 SUV

Question: And the “Uptake … Kidney” value ([1]; 15 mg/kg pridopidine)?
Answer: 2.07 ± 0.15 SUV

Question: What about the “Uptake … Liver” value ([1]; 15 mg/kg pridopidine) of the same compound?
Answer: 7.21 ± 0.83 SUV

Question: What about the “Uptake … Lung” value ([1]; 15 mg/kg pridopidine) of the same compound?
Answer: 1.47 ± 0.04 SUV

Question: What about the “Uptake … Muscle” value ([1]; 15 mg/kg pridopidine) of the same compound?
Answer: 0.22 ± 0.02 SUV

Question: What about the “Uptake … Pancreas” value ([1]; 15 mg/kg pridopidine) of the same compound?
Answer: 6.23 ± 0.53 SUV

Question: And the “Uptake … Pituitary” value ([1]; 15 mg/kg pridopidine)?
Answer: 2.75 ± 0.72 SUV

Question: And the “Uptake … Plasma” value ([1]; 15 mg/kg pridopidine)?
Answer: 0.28 ± 0.02 SUV

Question: What about the “Uptake … Red blood cells” value ([1]; 15 mg/kg pridopidine) of the same compound?
Answer: 0.16 ± 0.01 SUV

Question: And the “Uptake … Rest brain” value ([1]; 15 mg/kg pridopidine)?
Answer: 0.65 ± 0.03 SUV

Question: And the “Uptake … Spleen” value ([1]; 15 mg/kg pridopidine)?
Answer: 1.99 ± 0.07 SUV

Question: What about the “Uptake … Submandibular gland” value ([1]; 15 mg/kg pridopidine) of the same compound?
Answer: 5.77 ± 0.39 SUV

Question: And the “Uptake … Urine” value ([1]; 15 mg/kg pridopidine)?
Answer: 0.50 ± 0.09 SUV

Question: What about the “Uptake … Adipose tissue” value ([1]; Baseline) of the same compound?
Answer: 0.26 ± 0.05 SUV

Question: And the “Uptake … Adrenal gland” value ([1]; Baseline)?
Answer: 25.7 ± 3.6 SUV

Question: What about the “Uptake … Bladder” value ([1]; Baseline) of the same compound?
Answer: 0.70 ± 0.10 SUV

Question: What about the “Uptake of radioactivity (SUV values), Bone” value ([1]; Baseline) of the same compound?
Answer: 0.44 ± 0.14 SUV

Question: What about the “Uptake … Bone marrow” value ([1]; Baseline) of the same compound?
Answer: 2.57 ± 0.47 SUV

Question: What about the “Uptake … Cerebellum” value ([1]; Baseline) of the same compound?
Answer: 1.95 ± 0.12 SUV

Question: What about the “Uptake … Cerebral cortex” value ([1]; Baseline) of the same compound?
Answer: 1.97 ± 0.15 SUV

Question: And the “Uptake … Heart” value ([1]; Baseline)?
Answer: 0.33 ± 0.04 SUV

Question: And the “Uptake of radioactivity … (large)” value ([1]; Baseline)?
Answer: 1.72 ± 0.13 SUV

Question: What about the “Uptake of radioactivity … (small)” value ([1]; Baseline) of the same compound?
Answer: 2.33 ± 0.28 SUV

Question: And the “Uptake … Kidney” value ([1]; Baseline)?
Answer: 4.19 ± 0.20 SUV

Question: And the “Uptake … Liver” value ([1]; Baseline)?
Answer: 6.47 ± 0.63 SUV

Question: What about the “Uptake … Lung” value ([1]; Baseline) of the same compound?
Answer: 1.98 ± 0.18 SUV

Question: And the “Uptake … Muscle” value ([1]; Baseline)?
Answer: 0.15 ± 0.02 SUV

Question: And the “Uptake … Pancreas” value ([1]; Baseline)?
Answer: 4.95 ± 0.74 SUV

Question: And the “Uptake … Pituitary” value ([1]; Baseline)?
Answer: 3.24 ± 0.03 SUV

Question: What about the “Uptake … Plasma” value ([1]; Baseline) of the same compound?
Answer: 0.11 ± 0.02 SUV

Question: What about the “Uptake … Red blood cells” value ([1]; Baseline) of the same compound?
Answer: 0.10 ± 0.03 SUV

Question: What about the “Uptake … Rest brain” value ([1]; Baseline) of the same compound?
Answer: 2.23 ± 0.31 SUV

Question: What about the “Uptake … Spleen” value ([1]; Baseline) of the same compound?
Answer: 2.62 ± 0.27 SUV

Question: What about the “Uptake … Submandibular gland” value ([1]; Baseline) of the same compound?
Answer: 3.60 ± 0.18 SUV

Question: What about the “Uptake … Urine” value ([1]; Baseline) of the same compound?
Answer: 0.35 ± 0.16 SUV

Question: What about the “parent tracer (^11C-SA4503) remaining unchanged in plasma” value [2] of the same compound?
Answer: 55%

Question: With `CCN1CCC[C@H]1CNC(=O)c1c(O)c(Cl)cc(Cl)c1O[11CH3]` (racemic) [^11C-raclopride] as the compound, how does the “Target binding of the radioligand (striatum-to-cerebellum ratio at plateau minus one)” value [3] read?
Answer: 2.85 ± 0.48
